In ChEMBL document CHEMBL1201862, “PubChem BioAssay data set” (2004):
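Tested at 5 concentrations; 48 h exposure; 96-well plates; endpoints linearly interpolated, else capped at highest concentration. GI50: concentration for 50% inhibition of growth.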 Calls of active or inactive are those of the source. Rule as the data show it: active = GI50 up to about 1.1 µM and inactive = higher.

What was measured:
Experiment in all cases: NCI anticancer screen, dose series, 48 h
[1] = tested on: BT-549
[2] = tested on: DLD-1
[3] = tested on: SNB-78
[4] = tested on: DMS-114
[5] = tested on: DMS-273
[6] = tested on: M19-MEL
[7] = tested on: XF498
[8] = tested on: HOP-18
[9] = tested on: RXF 631

SMILES	GI50 [1]	GI50 [2]	GI50 [3]	GI50 [4]	GI50 [6]	further results
O=C(Nc1ccc(Cl)cc1)c1cc(S(=O)(=O)N2CCNNC2=O)c(S)cc1Cl	35.7 µM (inactive)					
C#Cc1cccc(NC(=O)/C=C\C(=O)O)c1		> 100 µM (inactive)	> 100 µM (inactive)			
Cc1c(S(=O)(=O)c2ccccc2)c(N)n(Cc2ccccc2)c1C	> 100 µM (inactive)					
O=C(O)C12C3CCC(CC3)C1(C(=O)O)C1CCC2C1 (centres undefined)	> 100 µM (inactive)					
COc1ccc(/C=c2/sc3n(c2=O)NC2(CCC(C)CC2)NN=3)cc1 (centres undefined)		> 100 µM (inactive)	> 100 µM (inactive)	50 µM (inactive)	> 100 µM (inactive)	GI50 [5]: > 100 µM (inactive); GI50 [7]: > 100 µM (inactive)
CC(=O)O[C@]12CCCCCC1C1(O)C(O)CCC[C@H]12 (some centres undefined)			> 100 µM (inactive)	> 100 µM (inactive)	> 100 µM (inactive)	GI50 [5]: > 100 µM (inactive); GI50 [8]: > 100 µM (inactive); GI50 [7]: > 100 µM (inactive)
COc1ccc(/C=C2\CCC(CNc3ccc(OC)cc3)C2=O)cc1 (centres undefined)	13.7 µM (inactive)					
COc1cccc(/C=C(\NC(C)=O)c2nc3cc(Cl)ccc3[nH]2)c1		> 100 µM (inactive)	> 100 µM (inactive)	> 100 µM (inactive)	> 100 µM (inactive)	GI50 [7]: > 100 µM (inactive)
CCCCNC(=S)N/C=C1\C(=O)Nc2ccccc2C1=O	> 10 µM (inactive)					
COC(=O)c1ccc(CCc2cc(O)c(Br)cc2O)cc1	4.63 µM (inactive)					
CCn1c2c(c3c(C(=O)OC)c(O)ccc31)C(=O)c1ccccc1C2=O	12.5 µM (inactive)					
Cc1nc2ccccc2n1Cc1nnc(-c2ccccc2)o1	> 100 µM (inactive)					
O[C@@]12Cc3c([nH]c4ccccc34)[C@@H]3Oc4c(-c5ccccc5)ccc5c4[C@@]31CCN(CC1CC1)[C@@H]2C5	10.8 µM (inactive)					
CON(C)C(=O)C(C)NC(=O)OC(C)(C)C (centres undefined)	> 100 µM (inactive)					
C=CC1=C(C)c2cc3[nH]c(cc4nc(cc5[nH]c(cc1n2)c(C)c5CCC(=O)N(CC)CC)C(CCC(=O)N(CC)CC)=C4C)c(C)c3C=C		> 100 µM (inactive)	> 100 µM (inactive)		> 100 µM (inactive)	GI50 [8]: < 0.01 µM (active)
Nc1ccc(OCCCc2c(-c3ccccc3)[nH]c(N)nc2=O)cc1	22.5 µM (inactive)					
O=C1N(c2ccccc2)C(=S)/C(=C/c2ccc(Cl)cc2)N1c1ccc(Cl)cc1	44.4 µM (inactive)					
O=C1NC(=O)C(C(=O)C(=O)Nc2ccc(Cl)cc2Cl)C(=O)N1		> 100 µM (inactive)	> 100 µM (inactive)	> 100 µM (inactive)	> 100 µM (inactive)	GI50 [9]: > 100 µM (inactive)
C=C(C(=O)OC)[C@@H]1C[C@@H](OC(C)=O)C2=C[C@H](C[C@@]3(C)O[C@@H]3C3=CC(C)=C(O3)[C@H]1OC(C)=O)OC2=O [BIPINNATIN I]	12.9 µM (inactive)					
O=C(COC(=O)c1cccc2c(=O)c3ccccc3[nH]c12)Nc1ccc(S(=O)(=O)Nc2ncccn2)cc1		> 100 µM (inactive)	30.6 µM (inactive)	43.4 µM (inactive)	48.2 µM (inactive)	GI50 [5]: 27.5 µM (inactive); GI50 [9]: 94 µM (inactive); GI50 [7]: 26.5 µM (inactive)
COC(=O)C1C2CC3C(OC(=O)C31)C2I (centres undefined)			> 100 µM (inactive)	> 100 µM (inactive)	> 100 µM (inactive)	GI50 [5]: > 100 µM (inactive)
O=c1c2cccnc2ncn1CCCN1CCCC1		> 100 µM (inactive)	> 100 µM (inactive)	86.1 µM (inactive)	> 100 µM (inactive)	GI50 [5]: > 100 µM (inactive); GI50 [7]: > 100 µM (inactive)
Cc1ccc(S(=O)(=O)N(/N=C/C=C/c2ccccc2)c2nnc(-c3ccccc3)c(-c3ccccc3)n2)cc1		21.9 µM (inactive)	16.8 µM (inactive)	16.3 µM (inactive)	28.1 µM (inactive)	GI50 [5]: 18.9 µM (inactive)

SMILES	GI50 [1]	GI50 [2]	GI50 [3]	GI50 [4]	GI50 [6]	further results
Cc1c2c(n3c(nc4ccccc43)c1C#N)N(c1ccc(Cl)cc1)CC2	> 100 µM (inactive)					
Cc1csc2nc3[nH]ncc3c(=O)n12	> 100 µM (inactive)					
CON(C)C(=O)[C@H]1C[C@@]1(C)CO	> 100 µM (inactive)					
CN1C(=O)C(CC(=O)O)NC1=S (centres undefined)	> 100 µM (inactive)					
O=C(n1[nH]c(=O)n(-c2ccc([N+](=O)[O-])cc2)c1=O)C(Cl)(Cl)Cl	> 75 µM (inactive)					
O=C1CCC(c2ccccc2)C(O)(C(=O)O)C1 (centres undefined)		> 100 µM (inactive)	> 100 µM (inactive)		> 100 µM (inactive)	GI50 [5]: > 100 µM (inactive); GI50 [8]: > 100 µM (inactive); GI50 [9]: > 100 µM (inactive)
Cc1ccc(-c2cc(-c3ccco3)c(C#N)c(=O)n2C2OC(OC(=O)c3ccccc3)C(OC(=O)c3ccccc3)C2OC(=O)c2ccccc2)cc1 (centres undefined)		> 100 µM (inactive)	83.6 µM (inactive)	38.6 µM (inactive)	> 100 µM (inactive)	GI50 [5]: 97.1 µM (inactive); GI50 [8]: > 100 µM (inactive); GI50 [9]: > 100 µM (inactive)
C=CC(C)CCC(C/C=C(\C)CCC=C(C)C)C(=C)CCCC(C)C (centres undefined)	> 100 µM (inactive)					
CC1(Br)C(=O)NC(=O)N(C2CC(N=[N+]=[N-])C(CO)O2)C1N=[N+]=[N-] (centres undefined)		> 100 µM (inactive)	> 100 µM (inactive)	> 100 µM (inactive)	> 100 µM (inactive)	GI50 [5]: > 100 µM (inactive); GI50 [9]: > 100 µM (inactive); GI50 [7]: > 100 µM (inactive)
O=C(Nc1cccc(Cc2cccc(NC(=O)c3ccccc3)c2)c1)c1ccccc1		91.8 µM (inactive)		10.6 µM (inactive)	63 µM (inactive)	GI50 [5]: 55 µM (inactive); GI50 [8]: 34.3 µM (inactive)
CCC1(N=[N+]=[N-])C(=O)c2ccccc2N(C)C1=O (centres undefined)		> 100 µM (inactive)	> 100 µM (inactive)	> 100 µM (inactive)	> 100 µM (inactive)	GI50 [5]: > 100 µM (inactive); GI50 [8]: 82.2 µM (inactive)
CN(Cc1cc(Br)cc(Br)c1O)Cc1c(O)ccc2ccccc12	22.4 µM (inactive)					
O=C1C(Cl)=C(Cl)C(Cl)(Cl)C(Cl)C1(Cl)Cl (centres undefined)	19.7 µM (inactive)					
CN(C)CCCNc1cc(O)c2c(c1O)C(=O)c1ccccc1C2=O	17 µM (inactive)					
CNCC(=O)Nc1ccc2c(c1)C(=O)c1ccc(NC(=O)CNC)cc1C2=O		9.64 µM (inactive)	3.05 µM (inactive)	2.03 µM (inactive)		GI50 [5]: 2.6 µM (inactive); GI50 [8]: < 0.01 µM (active); GI50 [7]: 3.32 µM (inactive)
Nc1nc(Cl)c(N)c(NCC2(CO)CC(OCc3ccccc3)C2)n1 (centres undefined)	> 100 µM (inactive)					
N#Cc1nc(-c2ccccn2)c(-c2ccccn2)nc1C#N	2.36 µM (inactive)					
CCOC(=O)C(CS)NC(=O)CCCCCCCC(=O)NC(CS)C(=O)OCC (centres undefined)	> 100 µM (inactive)					
OC1CN2Cc3cc4c(cc3[C@]13C=C[C@@H](O)CC23)OCO4 (some centres undefined)	33.4 µM (inactive)					
Cn1c(=O)oc2cc(C(=O)CSC(=S)N3CCCCCC3)ccc21	> 100 µM (inactive)					
CCOC(=O)C12OC(CCC1=O)C(C(=O)OC)=C2C(=O)OC (centres undefined)	> 10 µM (inactive)					
C=CCC(C(=O)OC)C1(C(=O)OC)c2[nH]c3ccccc3c2CCN1Cc1ccccc1 (centres undefined)		> 100 µM (inactive)		> 100 µM (inactive)	> 100 µM (inactive)	
Cc1noc(C)c1-n1nc2ccc3nonc3c2n1	79.3 µM (inactive)					

SMILES	GI50 [1]	GI50 [2]	GI50 [3]	GI50 [4]	GI50 [6]	further results
Cc1c(Cl)ccc2c1NC(=O)C2(O)CC(=O)c1cccc2ccccc12 (centres undefined)		> 100 µM (inactive)	> 100 µM (inactive)	18.3 µM (inactive)	18.3 µM (inactive)	GI50 [5]: 40.1 µM (inactive); GI50 [8]: 77.3 µM (inactive); GI50 [7]: > 100 µM (inactive)
O=C1OCC(C(=O)c2cccc(O)c2)C1=O (centres undefined)		> 100 µM (inactive)	> 100 µM (inactive)	> 100 µM (inactive)	> 100 µM (inactive)	GI50 [5]: > 100 µM (inactive); GI50 [8]: > 100 µM (inactive); GI50 [9]: > 100 µM (inactive)
O=S(=O)(O)C(O)/C=C/c1ccccc1 (centres undefined)		> 100 µM (inactive)		65.2 µM (inactive)	> 100 µM (inactive)	GI50 [5]: > 100 µM (inactive); GI50 [8]: > 100 µM (inactive)
O=C(COc1ccc2c(=O)cc(-c3ccccc3)oc2c1)N1CCN(c2ccccc2)CC1			> 100 µM (inactive)	24.5 µM (inactive)	62.2 µM (inactive)	GI50 [8]: 41.9 µM (inactive)
CC1(c2ccccc2Cl)C(C#N)C(=O)NC(=O)C1C#N (centres undefined)		68.7 µM (inactive)	55.6 µM (inactive)	30.9 µM (inactive)	35.3 µM (inactive)	GI50 [5]: 33.6 µM (inactive)
CC(=O)O[C@@H]1CO[C@H]2O[C@H]3[C@@H](C(C=O)=C[C@H](O)[C@@H]4C5=C(C(C)C)CC[C@]5(C)CC[C@@]34C)[C@@]2(O)C1=O [STRIATIN E]	0.12 µM (active)					
C=CC[C@H]1[C@H](O[Si](C)(C)C(C)(C)C)C=CC(=O)[C@@H]1CC(=O)OCC	16.5 µM (inactive)					
c1cncc(CNCCN2CCNCC2)c1	> 100 µM (inactive)					
CC1(C)CN=C(Nc2ccc(Cl)cc2)S1	> 100 µM (inactive)					
O=C(O)c1nc2ccccc2nc1NCc1ccc(F)cc1	> 100 µM (inactive)					
CC(C)(C)OC(=O)N1CC(COS(C)(=O)=O)c2ccc(O)cc21 (centres undefined)	1.52 µM (inactive)					
COc1ccc(C[C@H]2NC[C@H](O)[C@H]2OC(C)=O)cc1 [ANISOMYCIN]	0.0411 µM (active)					
O=c1c2c(c1=O)C1(SCCCS1)c1cc(Cl)ccc1O2	> 100 µM (inactive)					
COc1c(Br)cc2c(c1OC)C(Br)CCC(Br)(Br)C2=O (centres undefined)	0.527 µM (active)					
O=c1[nH]c2nccn2c2c1SCCN2	> 100 µM (inactive)					
CC1=NN(C2=NS(=O)(=O)c3ccccc3N2C)C(=O)C1	> 100 µM (inactive)					
NCCCCN(CCCN)C(=O)OCc1ccccc1	> 100 µM (inactive)					
CC1(C)C=N[N+]2(C)C3C=CC(CC3)C12 (centres undefined)		> 100 µM (inactive)	> 100 µM (inactive)	> 100 µM (inactive)	> 100 µM (inactive)	GI50 [8]: > 100 µM (inactive); GI50 [9]: > 100 µM (inactive)
C[n+]1c(-c2ccc(/C=N\NC(=O)c3ccc(C(=O)N/N=C/c4ccc(-c5cn6ccsc6[n+]5C)cc4)cc3)cc2)cn2ccsc21	16.5 µM (inactive)					
O=C(O)Cc1ccc2c(c1)/C(=C1/Nc3ccccc3C1=O)C(=O)N2	44.5 µM (inactive)					
CC(=O)/C(=C\c1cccc([N+](=O)[O-])c1)C(=O)Nc1ccccc1C		> 100 µM (inactive)	> 100 µM (inactive)	> 100 µM (inactive)	> 100 µM (inactive)	GI50 [8]: > 100 µM (inactive); GI50 [7]: > 100 µM (inactive)
c1cc(CSc2ncnc3[nH]cnc23)ccn1	73.8 µM (inactive)					
